Calls of active or inactive are those of the source.
Legend:
[1] = tested on: BJ; assay: cytotoxicity toward BJ-TERT-LT-ST fibroblasts, dose response, cell-based, RAS-independent, luminescence (AID 1935); type: functional; details: Homo sapiens;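 note: BJ fibroblasts immortalized with TERT plus LT and ST oncogenes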
[2] = tested on: Vero; assay: cells; type: functional, cell-based; details: Chlorocebus sabaeus
[3] = cells
[4] = tested on: BJ; assay: cytotoxicity toward BJ-TERT fibroblasts, dose response, cell-based, RAS-independent, luminescence (AID 1933); type: functional; details: Homo sapiens
[5] = tested on: Vero; assay: cells; type: functional; details: Chlorocebus sabaeus
[6] = HEp-2 cell cytotoxicity, dose response, cytotoxicity control for RSV inhibitor project, HTS (AID 2410); type: functional; details: human respiratory syncytial virus
[7] = tested on: BJ; assay: cells; type: functional, cell-based; details: Homo sapiens
[8] = cytotoxicity toward DRD oncogenic fibroblasts, dose response, cell-based, non-viral oncogenic, luminescence (AID 1934); type: functional; details: Homo sapiens
[9] = M. tuberculosis H37Rv growth inhibitors, H37Rv strain (AID 1626); type: functional
[10] = biological target: T1, Protein skinhead-1 (Caenorhabditis elegans, UniProt P34707); type: functional
T1 sequence (P34707 whole entry): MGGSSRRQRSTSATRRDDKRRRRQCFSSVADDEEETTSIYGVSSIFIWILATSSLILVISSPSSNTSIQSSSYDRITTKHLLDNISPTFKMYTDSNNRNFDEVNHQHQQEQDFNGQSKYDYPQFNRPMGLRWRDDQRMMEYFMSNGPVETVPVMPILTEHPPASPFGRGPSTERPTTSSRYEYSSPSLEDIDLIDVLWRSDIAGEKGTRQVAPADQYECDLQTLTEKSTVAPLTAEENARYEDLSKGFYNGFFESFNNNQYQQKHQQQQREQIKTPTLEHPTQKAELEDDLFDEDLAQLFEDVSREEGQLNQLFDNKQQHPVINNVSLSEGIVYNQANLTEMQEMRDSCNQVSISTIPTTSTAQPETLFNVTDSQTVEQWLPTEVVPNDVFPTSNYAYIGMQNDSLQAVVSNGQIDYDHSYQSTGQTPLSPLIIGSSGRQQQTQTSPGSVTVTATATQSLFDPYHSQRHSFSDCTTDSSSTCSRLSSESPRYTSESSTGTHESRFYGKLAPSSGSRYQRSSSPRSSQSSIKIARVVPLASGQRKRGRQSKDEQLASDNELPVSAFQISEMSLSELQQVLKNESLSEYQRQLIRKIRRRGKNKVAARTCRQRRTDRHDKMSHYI

[11] = biological target: T2, Oxysterols receptor LXR-beta (Homo sapiens, UniProt P55055); type: functional, cell-based;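 note: Cell-based luminescence dose-response assay of agonist activity at LXR, run as a confirmatory counterscreen to a daf-12 agonist screen; HEK293 cells with Gal4-LXR fusion and GAL4-driven luciferase reporter; agonist potency from rising luciferase signal of a Gal4-LXR reporter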
T2 sequence (P55055 whole entry): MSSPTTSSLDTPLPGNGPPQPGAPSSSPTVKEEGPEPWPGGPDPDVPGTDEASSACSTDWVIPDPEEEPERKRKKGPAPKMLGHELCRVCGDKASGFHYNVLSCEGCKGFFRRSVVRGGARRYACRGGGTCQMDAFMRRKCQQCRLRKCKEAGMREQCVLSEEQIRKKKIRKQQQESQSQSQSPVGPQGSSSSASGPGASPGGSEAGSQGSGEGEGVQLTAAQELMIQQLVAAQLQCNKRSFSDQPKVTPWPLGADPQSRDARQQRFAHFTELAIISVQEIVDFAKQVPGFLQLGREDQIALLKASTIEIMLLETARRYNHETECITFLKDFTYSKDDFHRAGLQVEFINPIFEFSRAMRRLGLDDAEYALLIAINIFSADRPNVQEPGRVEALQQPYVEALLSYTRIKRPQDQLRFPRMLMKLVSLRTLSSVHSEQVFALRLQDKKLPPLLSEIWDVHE

[12] = cells; remark: listed apart in the source
[13] = biological target: Lysosomal acid glucosylceramidase (Homo sapiens, UniProt P04062); assay: Dose response cell-based high throughput screening assay to identify enhancers of beta-glucosidase activity. [Related pubchem assays: 784 ]; type: functional
[14] = Luminescence Cell-Based Dose Confirmation to Identify Activators of 5'UTR Stem-Loop Driven Alpha-Synuclein mRNA Translation in H4 Neuroglioblastoma Cells. [Related pubchem assays: 1829 (Project Summary), 1814 (Primary HTS)]; type: functional
[15] = biological target: T3, Sentrin-specific protease 6 (Homo sapiens, UniProt Q9GZR1); type: functional;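 note: Luminescence-based dose-response confirmatory assay of SENP6 inhibition, following up an ultra-high-throughput screen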
T3 sequence (Q9GZR1 whole entry): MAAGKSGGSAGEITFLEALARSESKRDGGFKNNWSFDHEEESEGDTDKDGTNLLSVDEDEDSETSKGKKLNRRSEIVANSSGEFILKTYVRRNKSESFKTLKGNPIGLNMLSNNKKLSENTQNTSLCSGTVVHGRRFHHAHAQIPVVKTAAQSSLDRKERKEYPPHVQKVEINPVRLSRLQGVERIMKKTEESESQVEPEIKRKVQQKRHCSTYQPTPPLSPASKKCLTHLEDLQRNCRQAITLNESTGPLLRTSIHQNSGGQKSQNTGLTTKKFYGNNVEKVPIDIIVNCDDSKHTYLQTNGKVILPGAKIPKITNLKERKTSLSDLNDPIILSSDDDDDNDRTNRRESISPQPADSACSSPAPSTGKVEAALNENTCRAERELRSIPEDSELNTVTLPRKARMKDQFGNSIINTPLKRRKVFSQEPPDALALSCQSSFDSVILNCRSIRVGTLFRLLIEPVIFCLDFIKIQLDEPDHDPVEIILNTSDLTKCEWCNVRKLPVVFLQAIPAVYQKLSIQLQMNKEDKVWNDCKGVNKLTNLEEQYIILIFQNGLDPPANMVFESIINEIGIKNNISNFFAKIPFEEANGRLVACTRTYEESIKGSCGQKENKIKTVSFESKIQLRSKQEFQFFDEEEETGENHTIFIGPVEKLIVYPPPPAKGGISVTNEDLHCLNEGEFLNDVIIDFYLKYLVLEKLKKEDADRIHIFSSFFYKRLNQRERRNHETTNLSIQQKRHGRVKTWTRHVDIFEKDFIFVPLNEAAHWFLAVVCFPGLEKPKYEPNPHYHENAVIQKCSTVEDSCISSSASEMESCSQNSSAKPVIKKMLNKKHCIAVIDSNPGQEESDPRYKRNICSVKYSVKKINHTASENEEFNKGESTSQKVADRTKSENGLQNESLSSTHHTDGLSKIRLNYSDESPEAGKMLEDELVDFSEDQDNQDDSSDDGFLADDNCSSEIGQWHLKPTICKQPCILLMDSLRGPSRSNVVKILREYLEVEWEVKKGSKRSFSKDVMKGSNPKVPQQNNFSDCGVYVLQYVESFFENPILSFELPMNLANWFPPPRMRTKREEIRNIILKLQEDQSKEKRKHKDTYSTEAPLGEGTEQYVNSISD

[16] = biological target: Disintegrin and metalloproteinase domain-containing protein 17 (Homo sapiens, UniProt P78536); assay: exosite inhibitors of ADAM17, dose response, biochemical (AID 743260)
[17] = Luminescence Cell-Based Dose Response to Identify Activators of 5'UTR Stem-Loop Driven Prion Protein mRNA Translation in H4-C Neuroglioblastoma Cells. [Related pubchem assays: 1829 (Project Summary), 1814 (Primary HTS)]; type: functional
[18] = cytotoxicity in HPDE-C7 cells, cell-based, fluorescence, HTS (AID 430); type: functional; details: Homo sapiens
[19] = biological target: T4, Sentrin-specific protease 8 (Homo sapiens, UniProt Q96LD8); type: functional;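 note: luminescence read-out of SENP8 inhibition, dose-response confirmation following an ultra-high-throughput screen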
T4 sequence (Q96LD8 whole entry): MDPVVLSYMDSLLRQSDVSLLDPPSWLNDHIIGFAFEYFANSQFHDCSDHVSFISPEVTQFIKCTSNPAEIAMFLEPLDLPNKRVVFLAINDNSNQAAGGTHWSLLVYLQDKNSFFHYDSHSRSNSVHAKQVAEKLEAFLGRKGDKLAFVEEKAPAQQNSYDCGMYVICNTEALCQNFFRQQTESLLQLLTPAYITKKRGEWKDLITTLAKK

[20] = tested on: H4; assay: Luminescence Cell-Based Dose Response HTS to Identify Activators of 5'UTR Stem-Loop Driven Prion Protein mRNA Translation in H4 Neuroglioblastoma Cells. [Related pubchem assays: 1829 (Project Summary), 1814 (Primary HTS)]; type: functional; details: Homo sapiens
[21] = biological target: T5, Sentrin-specific protease 7 (Homo sapiens, UniProt Q9BQF6); type: functional;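 note: Luminescence-based dose-response confirmation of ultra-high-throughput screening hits, measuring inhibition of SENP7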
T5 sequence (Q9BQF6 whole entry): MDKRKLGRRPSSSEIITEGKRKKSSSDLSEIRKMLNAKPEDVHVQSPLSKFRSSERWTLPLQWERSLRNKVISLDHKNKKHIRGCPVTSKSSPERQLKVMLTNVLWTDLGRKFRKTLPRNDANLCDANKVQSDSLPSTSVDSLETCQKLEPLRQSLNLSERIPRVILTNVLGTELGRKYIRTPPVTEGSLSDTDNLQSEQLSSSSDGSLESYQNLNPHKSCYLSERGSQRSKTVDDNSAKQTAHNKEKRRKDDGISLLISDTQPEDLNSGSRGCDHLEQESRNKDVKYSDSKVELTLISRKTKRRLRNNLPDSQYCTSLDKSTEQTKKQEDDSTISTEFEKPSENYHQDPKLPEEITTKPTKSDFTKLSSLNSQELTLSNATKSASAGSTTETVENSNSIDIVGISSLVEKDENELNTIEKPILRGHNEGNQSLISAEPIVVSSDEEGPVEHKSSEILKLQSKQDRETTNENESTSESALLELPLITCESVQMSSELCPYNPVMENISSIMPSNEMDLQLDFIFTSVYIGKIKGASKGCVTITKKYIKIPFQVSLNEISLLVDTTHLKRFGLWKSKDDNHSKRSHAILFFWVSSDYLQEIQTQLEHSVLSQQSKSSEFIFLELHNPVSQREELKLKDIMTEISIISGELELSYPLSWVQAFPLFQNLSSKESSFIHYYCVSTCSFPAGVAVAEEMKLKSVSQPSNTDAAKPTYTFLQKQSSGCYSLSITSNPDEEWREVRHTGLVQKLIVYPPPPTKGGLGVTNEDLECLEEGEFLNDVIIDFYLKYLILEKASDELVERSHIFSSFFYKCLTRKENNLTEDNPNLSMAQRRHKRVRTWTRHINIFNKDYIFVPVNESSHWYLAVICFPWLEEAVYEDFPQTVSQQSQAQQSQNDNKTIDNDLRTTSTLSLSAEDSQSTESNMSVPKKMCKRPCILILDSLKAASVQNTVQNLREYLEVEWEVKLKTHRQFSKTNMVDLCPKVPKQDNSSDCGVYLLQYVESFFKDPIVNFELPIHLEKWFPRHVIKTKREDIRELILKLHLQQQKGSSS

[22] = Luminescence Cell-Based Dose Response HTS to Identify Activators of Luciferase Translation or Activity in H4 […] Cells. [Related pubchem assays: 1829 (Project Summary), 1814 (Primary HTS)]; type: functional
[23] = Luminescence Cell-Based Dose Response to Identify Activators of Luciferase Translation or Activity in H4-C Neuroglioblastoma Cells. [Related pubchem assays: 1829 (Project Summary), 1814 (Primary HTS)]; type: functional
[24] = biological target: T6, Caspase-3 (Homo sapiens, UniProt P42574); type: functional;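 note: Dose-response selectivity test against caspase-3 for candidate inhibitors of sentrin-specific proteases (SENPs)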
T6 sequence (P42574 whole entry): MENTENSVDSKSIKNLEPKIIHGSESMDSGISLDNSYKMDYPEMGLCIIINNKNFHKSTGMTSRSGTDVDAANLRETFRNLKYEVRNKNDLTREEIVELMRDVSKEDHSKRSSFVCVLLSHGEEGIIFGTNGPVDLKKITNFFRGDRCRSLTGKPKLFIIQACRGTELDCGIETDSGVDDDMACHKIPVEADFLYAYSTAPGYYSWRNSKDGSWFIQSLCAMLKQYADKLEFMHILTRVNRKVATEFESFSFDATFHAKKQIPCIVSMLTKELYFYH

[25] = cytotoxicity in KRAS-transformed pancreatic duct cells, primary screen, cell-based, fluorescence, HTS (AID 431); type: functional; details: Homo sapiens;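 note: cell line used: HPDE-C7K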
[26] = cytotoxicity toward NIH3T3 fibroblasts, dose response, counter-screen, cell-based, ATP luminescence, mouse fibroblasts (AID 2010); type: functional;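 note: cells exposed to compound for about 90 hours before reading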
[27] = inhibitors of intracellular T. cruzi replication, confirmation, NIH3T3 host cells, beta-gal luminescence (AID 2044); type: functional, cell-based;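 note: intracellular parasites grown in NIH/3T3 mouse fibroblasts as host cells; luminescent beta-galactosidase reporter signal from transgenic T. cruzi replicating inside host cells; inhibitors lower the luminescence signal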

Lysosomal acid glucosylceramidase, sequence (P04062 whole entry): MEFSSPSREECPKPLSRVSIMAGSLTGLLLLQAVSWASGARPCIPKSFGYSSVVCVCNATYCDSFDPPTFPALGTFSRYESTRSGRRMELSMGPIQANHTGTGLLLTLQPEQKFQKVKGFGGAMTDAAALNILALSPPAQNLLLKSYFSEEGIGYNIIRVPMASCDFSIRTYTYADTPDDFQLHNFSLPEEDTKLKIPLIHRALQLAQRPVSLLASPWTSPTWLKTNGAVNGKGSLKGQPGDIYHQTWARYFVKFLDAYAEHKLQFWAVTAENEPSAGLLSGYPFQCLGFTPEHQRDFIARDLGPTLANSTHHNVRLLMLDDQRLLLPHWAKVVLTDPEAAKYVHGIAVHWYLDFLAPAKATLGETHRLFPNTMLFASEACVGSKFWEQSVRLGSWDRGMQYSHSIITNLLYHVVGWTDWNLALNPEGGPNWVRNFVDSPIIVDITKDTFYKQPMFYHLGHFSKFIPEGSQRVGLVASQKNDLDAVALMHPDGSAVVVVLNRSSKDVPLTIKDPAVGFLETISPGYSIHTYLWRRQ
Disintegrin and metalloproteinase domain-containing protein 17, sequence (P78536 whole entry, the tested form may be a part): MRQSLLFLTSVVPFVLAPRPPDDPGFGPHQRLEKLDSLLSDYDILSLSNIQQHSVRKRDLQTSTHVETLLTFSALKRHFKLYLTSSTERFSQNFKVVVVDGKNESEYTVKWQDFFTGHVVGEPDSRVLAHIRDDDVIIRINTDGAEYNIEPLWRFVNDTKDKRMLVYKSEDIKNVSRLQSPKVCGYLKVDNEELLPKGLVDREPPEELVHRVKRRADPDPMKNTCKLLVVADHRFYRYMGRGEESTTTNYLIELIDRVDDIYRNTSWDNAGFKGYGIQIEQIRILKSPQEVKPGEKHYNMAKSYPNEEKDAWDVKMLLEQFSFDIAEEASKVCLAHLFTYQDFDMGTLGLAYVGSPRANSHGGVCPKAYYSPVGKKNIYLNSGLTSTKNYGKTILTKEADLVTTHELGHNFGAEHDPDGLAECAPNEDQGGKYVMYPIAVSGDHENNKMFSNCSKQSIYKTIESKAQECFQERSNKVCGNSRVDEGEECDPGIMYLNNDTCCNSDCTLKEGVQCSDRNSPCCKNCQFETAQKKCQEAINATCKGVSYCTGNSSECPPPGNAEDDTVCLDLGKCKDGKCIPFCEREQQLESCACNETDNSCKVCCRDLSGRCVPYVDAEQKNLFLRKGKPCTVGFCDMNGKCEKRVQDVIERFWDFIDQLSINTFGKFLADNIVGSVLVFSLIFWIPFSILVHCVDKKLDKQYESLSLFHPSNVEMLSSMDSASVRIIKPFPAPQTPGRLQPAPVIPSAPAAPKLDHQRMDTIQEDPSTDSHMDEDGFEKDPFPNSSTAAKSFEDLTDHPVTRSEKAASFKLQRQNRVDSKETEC

COc1cc(NC(=S)NC(=O)c2ccc(C(C)(C)C)cc2)ccc1NC(=O)c1cccs1
EC50 [1]: > 150 µM (inconclusive) | IC50 [2]: 2.5 µM (active) | IC50 [3]: 8.44 µM (active) | EC50 [4]: 60.4 µM (active) | CC50 [5]: > 25 µM (active) | CC50 [6]: 18.9 µM (active) | EC50 [7]: 32.9 µM (inconclusive) | EC50 [8]: 72.6 µM (active)

Cc1ccc(N/C=C(/C(=O)c2ccco2)C(=O)C(F)(F)F)cc1Cl
IC50 [9]: > 100 µM (active) | IC50 [10]: 27.2 µM (active) | EC50 [11]: > 67.5 µM (inactive) | EC50 [12]: > 67.5 µM (inactive)

O=C(CCS(=O)(=O)c1cccc2nonc12)N1CCCc2ccccc21
EC50 [13]: > 50 µM (not active)

CC(C)(C)c1ccc(OCc2nc(-c3ccccn3)no2)c(Br)c1
EC50 [14]: 0.114 µM (active) | IC50 [15]: 17.6 µM (active) | IC50 [16]: > 69.5 µM (inactive) | EC50 [17]: 0.683 µM (active) | EC50 [18]: 11.5 µM (active) | IC50 [19]: 13.5 µM (active) | EC50 [20]: < 0.1 µM (active) | IC50 [21]: 5.88 µM (active) | EC50 [22]: < 0.1 µM (active) | EC50 [23]: 0.91 µM (active) | IC50 [24]: 33.8 µM (active) | EC50 [25]: 11.9 µM (active)

Sc1nnc(Cc2ccccc2)n1Cc1ccco1
EC50 [13]: > 50 µM (not active)

CCOc1ccc2nc(NC(=O)CSC3=NCCS3)sc2c1
IC50 [9]: > 100 µM (active)

COC(=O)c1cc(NC(=O)CC2S/C(=N/c3ccccc3)N(CCc3c[nH]c4ccccc34)C2=O)cc(C(=O)OC)c1 (stereo unspecified)
EC50 [26]: > 60 µM (inconclusive) | EC50 [27]: 1.11 µM (active) | IC50 [3]: 41.7 µM (active) | CC50 [6]: > 50 µM (active)

Source: ChEMBL document CHEMBL1201862, “PubChem BioAssay data set” (2004)
